Measurements taken from ChEMBL document CHEMBL4507274 (2021).

Experiments:
[1] = test system: KATO III stomach cancer cell line; experiment: Stomach KATO III cell line MDS Pharma Services Proliferation Assay; type: functional, cell-based, Homo sapiens
[2] = target: T1, Dual specificity mitogen-activated protein kinase kinase 7 (Homo sapiens) (UniProt O14733); experiment: MKK7βbeta(h) Upstate kinase activity assay; details: Compound concentration 10.0 uM
T1 sequence (whole entry): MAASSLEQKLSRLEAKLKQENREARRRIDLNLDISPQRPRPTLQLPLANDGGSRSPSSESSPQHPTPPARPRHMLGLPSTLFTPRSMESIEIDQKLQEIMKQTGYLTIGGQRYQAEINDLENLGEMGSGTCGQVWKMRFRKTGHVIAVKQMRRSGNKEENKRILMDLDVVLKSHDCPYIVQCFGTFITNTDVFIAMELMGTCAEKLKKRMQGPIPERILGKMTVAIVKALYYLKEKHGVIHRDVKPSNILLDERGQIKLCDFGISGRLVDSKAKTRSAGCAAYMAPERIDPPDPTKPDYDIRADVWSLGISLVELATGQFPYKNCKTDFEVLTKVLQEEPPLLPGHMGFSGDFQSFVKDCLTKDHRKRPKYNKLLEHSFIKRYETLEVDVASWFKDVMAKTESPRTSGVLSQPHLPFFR

[3] = target: Mitogen-activated protein kinase 9 (Homo sapiens) (UniProt P45984); experiment: JNK2alpha2 (h) Upstate kinase activity assay; details: Compound concentration 10.0 uM
[4] = target: Tyrosine-protein kinase Lck (Homo sapiens) (UniProt P06239); experiment: Lck (h) Upstate kinase activity assay; details: Compound concentration 10.0 uM
[5] = test system: HC-4; experiment: Liver HC-4 cell line MDS Pharma Services Proliferation Assay; type: functional, cell-based, Homo sapiens
[6] = test system: SK-MEL-5; experiment: Melanoma SK-MEL-5 cell line MDS Pharma Services Proliferation Assay; type: functional, cell-based, Homo sapiens
[7] = target: Tyrosine-protein kinase Lyn (Mus musculus) (UniProt P25911); experiment: Lyn (m) Upstate kinase activity assay; details: Compound concentration 10.0 uM
[8] = target: Tyrosine-protein kinase ABL2 (Homo sapiens) (UniProt P42684); experiment: Arg (h) Upstate kinase activity assay; details: Compound concentration 10.0 uM
[9] = target: Protein kinase C eta type (Homo sapiens) (UniProt P24723); experiment: PKCeta (h) Upstate kinase activity assay; details: Compound concentration 10.0 uM
[10] = target: Casein kinase I isoform delta (Homo sapiens) (UniProt P48730); experiment: CK1delta (h) Upstate kinase activity assay; details: Compound concentration 10.0 uM
[11] = target: Ribosomal protein S6 kinase alpha-2 (Homo sapiens) (UniProt Q15349); experiment: Rsk3 (h) Upstate kinase activity assay; details: Compound concentration 10.0 uM
[12] = test system: Saccharomyces cerevisiae; experiment: CK1 (y) Upstate kinase activity assay; details: Compound concentration 10.0 uM
[13] = target: Glycogen synthase kinase-3 beta (Homo sapiens) (UniProt P49841); experiment: GSK3beta (h) Upstate kinase activity assay; details: Compound concentration 10.0 uM
[14] = target: Tyrosine-protein kinase Fyn (Homo sapiens) (UniProt P06241); experiment: Fyn (h) Upstate kinase activity assay; details: Compound concentration 10.0 uM
[15] = target: Mitogen-activated protein kinase 1 (Homo sapiens) (UniProt P28482); experiment: MAPK1 (h) Upstate kinase activity assay; details: Compound concentration 10.0 uM
[16] = test system: A498; experiment: Kidney A-498 cell line MDS Pharma Services Proliferation Assay; type: functional, cell-based, Homo sapiens
[17] = Melanoma B16-FO cell line MDS Pharma Services Proliferation Assay; type: functional, cell-based
[18] = test system: A-431; experiment: Skin A431 cell line MDS Pharma Services Proliferation Assay; type: functional, cell-based, Homo sapiens
[19] = target: Rho-associated protein kinase 2 (Rattus norvegicus, UniProt Q62868); experiment: (§1) ROCK-2 (r) Upstate kinase activity assay
[20] = target: Rho-associated protein kinase 2 (Rattus norvegicus) (UniProt Q62868); experiment: as §1; details: Compound concentration 10.0 uM
[21] = target: Protein kinase C alpha type (Homo sapiens) (UniProt P17252); experiment: PKCalpha (h) Upstate kinase activity assay; details: Compound concentration 10.0 uM
[22] = target: Sigma non-opioid intracellular receptor 1 (Homo sapiens, UniProt Q99720); experiment: GPCRScan assay: inhibition of Sigma 1; design: radioligand conc. used [nm] 4.0 – 5.0, parental cells HEKT
[23] = test system: Epidermal growth factor receptor (Homo sapiens), P00533 [G719S]; details: Compound concentration 100.0 nM
[24] = target: 5-hydroxytryptamine receptor 2A (Homo sapiens) (UniProt P28223); details: Compound concentration 10.0 uM
[25] = test system: Epidermal growth factor receptor (Homo sapiens), P00533 [G719C]; details: Compound concentration 100.0 nM
[26] = target: Calcium/calmodulin-dependent protein kinase type II subunit beta (Homo sapiens) (UniProt Q13554); details: Compound concentration 100.0 nM
[27] = test system: Epidermal growth factor receptor (Homo sapiens), P00533 [L858R]; details: Compound concentration 100.0 nM
[28] = target: Rho-associated protein kinase 2 (Homo sapiens, UniProt O75116); experiment: Biochemical ROCK2 assay
[29] = target: Muscarinic acetylcholine receptor M4 (Homo sapiens) (UniProt P08173); details: Compound concentration 10.0 uM

Mitogen-activated protein kinase 1 (Homo sapiens), sequence (P28482 whole entry): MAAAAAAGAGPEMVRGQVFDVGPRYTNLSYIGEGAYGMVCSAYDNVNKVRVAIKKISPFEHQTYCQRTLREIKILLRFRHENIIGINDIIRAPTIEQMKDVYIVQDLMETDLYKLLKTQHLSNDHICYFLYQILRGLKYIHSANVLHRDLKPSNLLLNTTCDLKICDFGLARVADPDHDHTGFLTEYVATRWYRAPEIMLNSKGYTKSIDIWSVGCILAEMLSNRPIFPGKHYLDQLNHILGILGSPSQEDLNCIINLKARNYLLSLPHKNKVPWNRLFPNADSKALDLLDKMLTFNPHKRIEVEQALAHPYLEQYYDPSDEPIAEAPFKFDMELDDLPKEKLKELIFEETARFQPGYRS
Protein kinase C eta type (Homo sapiens), sequence (P24723 whole entry, canonical isoform): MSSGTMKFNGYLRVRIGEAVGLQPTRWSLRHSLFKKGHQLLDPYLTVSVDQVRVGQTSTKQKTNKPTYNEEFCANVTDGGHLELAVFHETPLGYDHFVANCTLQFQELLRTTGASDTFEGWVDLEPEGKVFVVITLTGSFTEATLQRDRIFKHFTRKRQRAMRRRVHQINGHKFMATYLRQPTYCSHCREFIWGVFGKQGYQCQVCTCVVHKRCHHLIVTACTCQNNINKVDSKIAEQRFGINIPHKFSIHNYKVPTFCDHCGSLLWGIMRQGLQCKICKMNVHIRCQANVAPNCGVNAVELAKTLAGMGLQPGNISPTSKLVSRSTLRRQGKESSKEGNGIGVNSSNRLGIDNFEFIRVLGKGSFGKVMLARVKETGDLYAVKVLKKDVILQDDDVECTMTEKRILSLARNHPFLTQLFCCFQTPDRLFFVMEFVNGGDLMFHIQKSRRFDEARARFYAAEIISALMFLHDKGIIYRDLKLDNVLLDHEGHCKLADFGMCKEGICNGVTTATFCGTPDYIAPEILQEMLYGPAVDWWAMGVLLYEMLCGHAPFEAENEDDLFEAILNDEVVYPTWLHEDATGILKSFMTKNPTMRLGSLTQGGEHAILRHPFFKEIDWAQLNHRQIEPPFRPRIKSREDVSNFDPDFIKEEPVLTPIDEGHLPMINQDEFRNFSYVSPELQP
Ribosomal protein S6 kinase alpha-2 (Homo sapiens), sequence (Q15349 whole entry): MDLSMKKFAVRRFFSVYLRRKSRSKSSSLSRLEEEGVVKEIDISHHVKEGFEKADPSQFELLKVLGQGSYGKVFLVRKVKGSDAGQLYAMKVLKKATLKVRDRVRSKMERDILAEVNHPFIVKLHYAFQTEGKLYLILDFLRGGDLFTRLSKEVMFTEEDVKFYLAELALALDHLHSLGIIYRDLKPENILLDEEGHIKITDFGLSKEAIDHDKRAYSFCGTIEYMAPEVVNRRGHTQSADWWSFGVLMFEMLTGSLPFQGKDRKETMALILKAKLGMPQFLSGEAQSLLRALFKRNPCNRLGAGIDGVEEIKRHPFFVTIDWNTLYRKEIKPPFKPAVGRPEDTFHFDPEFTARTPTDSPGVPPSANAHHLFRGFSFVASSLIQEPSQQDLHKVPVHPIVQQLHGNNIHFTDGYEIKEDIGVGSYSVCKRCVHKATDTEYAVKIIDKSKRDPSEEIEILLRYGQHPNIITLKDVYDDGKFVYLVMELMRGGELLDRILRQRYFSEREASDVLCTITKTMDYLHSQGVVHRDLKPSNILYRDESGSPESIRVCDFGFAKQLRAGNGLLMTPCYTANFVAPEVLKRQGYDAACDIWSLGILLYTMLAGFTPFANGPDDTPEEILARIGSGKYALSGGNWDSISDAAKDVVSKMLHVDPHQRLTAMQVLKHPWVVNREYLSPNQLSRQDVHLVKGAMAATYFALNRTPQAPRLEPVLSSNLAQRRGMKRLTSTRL
Tyrosine-protein kinase Fyn (Homo sapiens), sequence (P06241 2-537 limits assumed): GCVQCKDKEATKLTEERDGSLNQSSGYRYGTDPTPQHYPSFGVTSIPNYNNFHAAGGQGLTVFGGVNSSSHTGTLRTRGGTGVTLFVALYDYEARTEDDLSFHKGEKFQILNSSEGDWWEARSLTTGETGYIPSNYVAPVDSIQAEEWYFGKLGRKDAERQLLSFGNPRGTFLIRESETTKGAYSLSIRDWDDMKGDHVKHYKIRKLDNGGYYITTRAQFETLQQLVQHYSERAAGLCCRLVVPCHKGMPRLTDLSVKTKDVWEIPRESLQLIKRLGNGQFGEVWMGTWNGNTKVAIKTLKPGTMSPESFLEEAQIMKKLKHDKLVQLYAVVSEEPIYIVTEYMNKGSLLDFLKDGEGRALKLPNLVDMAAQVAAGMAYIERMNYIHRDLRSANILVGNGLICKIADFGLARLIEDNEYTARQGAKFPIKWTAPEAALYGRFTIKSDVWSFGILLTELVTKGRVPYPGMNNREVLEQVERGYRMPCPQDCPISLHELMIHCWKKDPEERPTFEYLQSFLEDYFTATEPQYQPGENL
5-hydroxytryptamine receptor 2A (Homo sapiens), sequence (P28223 whole entry): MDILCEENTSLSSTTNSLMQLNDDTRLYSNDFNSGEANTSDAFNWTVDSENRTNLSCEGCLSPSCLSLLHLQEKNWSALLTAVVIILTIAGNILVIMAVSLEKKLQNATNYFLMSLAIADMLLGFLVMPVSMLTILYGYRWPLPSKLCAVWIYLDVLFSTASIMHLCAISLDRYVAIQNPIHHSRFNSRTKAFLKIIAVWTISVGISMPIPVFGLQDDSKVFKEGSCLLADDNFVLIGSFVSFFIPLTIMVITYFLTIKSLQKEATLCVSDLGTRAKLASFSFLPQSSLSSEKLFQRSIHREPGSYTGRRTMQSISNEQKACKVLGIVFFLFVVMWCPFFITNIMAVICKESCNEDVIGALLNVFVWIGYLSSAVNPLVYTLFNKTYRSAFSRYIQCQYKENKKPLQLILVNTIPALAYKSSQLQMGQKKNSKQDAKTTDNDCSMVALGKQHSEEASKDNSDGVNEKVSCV
Tyrosine-protein kinase Lyn (Mus musculus), sequence (P25911 whole entry): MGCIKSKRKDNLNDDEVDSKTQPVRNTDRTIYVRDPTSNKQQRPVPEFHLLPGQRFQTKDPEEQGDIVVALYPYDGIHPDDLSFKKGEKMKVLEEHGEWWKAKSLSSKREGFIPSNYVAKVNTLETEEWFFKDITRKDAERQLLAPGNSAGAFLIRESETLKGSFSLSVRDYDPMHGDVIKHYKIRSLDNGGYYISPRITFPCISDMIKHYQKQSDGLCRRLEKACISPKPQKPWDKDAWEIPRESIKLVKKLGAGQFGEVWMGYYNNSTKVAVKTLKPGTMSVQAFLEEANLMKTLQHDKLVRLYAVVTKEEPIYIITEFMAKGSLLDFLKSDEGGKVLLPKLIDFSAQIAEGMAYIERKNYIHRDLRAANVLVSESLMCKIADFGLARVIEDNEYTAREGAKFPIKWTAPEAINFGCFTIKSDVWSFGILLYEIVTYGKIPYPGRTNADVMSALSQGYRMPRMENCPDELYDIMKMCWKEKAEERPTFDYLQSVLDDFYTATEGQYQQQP
Calcium/calmodulin-dependent protein kinase type II subunit beta (Homo sapiens), sequence (Q13554 whole entry): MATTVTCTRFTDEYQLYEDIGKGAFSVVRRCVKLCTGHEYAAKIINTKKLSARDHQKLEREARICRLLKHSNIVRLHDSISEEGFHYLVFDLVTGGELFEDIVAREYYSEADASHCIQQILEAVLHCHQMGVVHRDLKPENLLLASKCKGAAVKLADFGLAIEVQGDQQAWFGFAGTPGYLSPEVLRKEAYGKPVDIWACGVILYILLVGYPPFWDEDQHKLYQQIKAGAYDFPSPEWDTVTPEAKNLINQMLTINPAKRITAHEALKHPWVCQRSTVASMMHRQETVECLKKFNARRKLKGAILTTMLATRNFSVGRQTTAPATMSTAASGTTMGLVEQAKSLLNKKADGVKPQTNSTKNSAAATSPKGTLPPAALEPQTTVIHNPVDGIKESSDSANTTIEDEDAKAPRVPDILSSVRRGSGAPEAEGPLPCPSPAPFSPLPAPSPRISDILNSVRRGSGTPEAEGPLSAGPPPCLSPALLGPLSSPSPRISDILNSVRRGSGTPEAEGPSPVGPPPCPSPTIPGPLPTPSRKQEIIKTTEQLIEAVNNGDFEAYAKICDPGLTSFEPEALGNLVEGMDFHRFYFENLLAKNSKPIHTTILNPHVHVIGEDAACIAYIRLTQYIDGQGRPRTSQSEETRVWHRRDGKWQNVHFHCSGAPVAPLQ
Sigma non-opioid intracellular receptor 1, sequence (Q99720 whole entry): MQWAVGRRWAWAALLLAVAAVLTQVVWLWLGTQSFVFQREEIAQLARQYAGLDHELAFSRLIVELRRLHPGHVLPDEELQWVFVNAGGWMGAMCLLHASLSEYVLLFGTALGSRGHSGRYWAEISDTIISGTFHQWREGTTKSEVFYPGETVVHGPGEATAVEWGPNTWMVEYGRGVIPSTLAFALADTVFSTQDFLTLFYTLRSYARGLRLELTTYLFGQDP

For Cc1c[nH]c2nccc(Oc3c(F)cc(Nc4cc(Cl)nc(N)n4)cc3F)c12 [BAY-549], the IC50 ([1]; Homo sapiens, KATO III) was 3.2 µM, the TGI ([1]; Homo sapiens, KATO III) was greater than 100 µM and the CC50 ([1]; Homo sapiens, KATO III, read-out: LC50 (the source's name)) was greater than 100 µM. The “Mean % growth (n = 2) for 0.01 µM probe concentration” value ([1]; ± SEM 7 % growth) was 98%, the “Mean % growth (n = 2) for 10.0 µM probe concentration” value ([1]; ± SEM 7 % growth) was 27% and the “Mean % growth (n = 2) for 100.0 µM probe concentration” value ([1]; ± SEM 7 % growth) was 19%. For the same compound, the “Mean % growth (n = 2) for 1.0 µM probe concentration” value ([1]; ± SEM 8 % growth) was 66%, the “Mean % growth (n = 2) for 0.1 µM probe concentration” value ([1]; ± SEM 11 % growth) was 99% and the inhibition [2] was 20%. It also gave an inhibition [3] of 16%, an inhibition [4] of 50% and an IC50 ([5]; Homo sapiens, HC-4) of 2.1 µM. The TGI ([5]; Homo sapiens, HC-4) was 13 µM, the CC50 ([5]; Homo sapiens, HC-4, read-out: LC50 (the source's name)) was 82 µM and the “Mean % growth (n = 2) for 0.1 µM probe concentration” value ([5]; ± SEM 1 % growth) was 94%. The “Mean % growth (n = 2) for 0.01 µM probe concentration” value ([5]; ± SEM 5 % growth) was 102%, the “Mean % growth (n = 2) for 1.0 µM probe concentration” value ([5]; ± SEM 5 % growth) was 59% and the “Mean % growth (n = 2) for 10.0 µM probe concentration” value ([5]; ± SEM 8 % growth) was 12%. For the same compound, the “Mean % growth (n = 2) for 100.0 µM probe concentration” value ([5]; ± SEM 8 % growth) was -56%, the IC50 ([6]; Homo sapiens, SK-MEL-5) was 16 µM and the TGI ([6]; Homo sapiens, SK-MEL-5) was 50 µM. For the same compound, the CC50 ([6]; Homo sapiens, SK-MEL-5, read-out: LC50 (the source's name)) was greater than 100 µM, the “Mean % growth (n = 2) for 100.0 µM probe concentration” value ([6]; ± SEM 1 % growth) was -32% and the “Mean % growth (n = 2) for 0.01 µM probe concentration” value ([6]; ± SEM 3 % growth) was 106%. For the same compound, the “Mean % growth (n = 2) for 1.0 µM probe concentration” value ([6]; ± SEM 3 % growth) was 98%, the “Mean % growth (n = 2) for 10.0 µM probe concentration” value ([6]; ± SEM 6 % growth) was 65% and the “Mean % growth (n = 2) for 0.1 µM probe concentration” value ([6]; ± SEM 8 % growth) was 89%. For the same compound, the inhibition [7] was 4%, the inhibition [8] was 37% and the inhibition [9] was 24%. For the same compound, the inhibition [10] was 65%, the inhibition [11] was 48% and the inhibition [12] was 44%. The inhibition [13] was -1%, the inhibition [14] was 14% and the inhibition [15] was 1%. For the same compound, the IC50 ([16]; Homo sapiens, A498) was 7.8 µM, the TGI ([16]; Homo sapiens, A498) was 70 µM and the CC50 ([16]; Homo sapiens, A498, read-out: LC50 (the source's name)) was greater than 100 µM. For the same compound, the “Mean % growth (n = 2) for 0.01 µM probe concentration” value ([16]; ± SEM 2 % growth) was 99%, the “Mean % growth (n = 2) for 10.0 µM probe concentration” value ([16]; ± SEM 2 % growth) was 26% and the “Mean % growth (n = 2) for 100.0 µM probe concentration” value ([16]; ± SEM 2 % growth) was -1%. The “Mean % growth (n = 2) for 0.1 µM probe concentration” value ([16]; ± SEM 5 % growth) was 93%, the “Mean % growth (n = 2) for 1.0 µM probe concentration” value ([16]; ± SEM 5 % growth) was 98% and the CC50 ([17]; Mus musculus, B16-F10, read-out: LC50 (the source's name)) was greater than 100 µM. The “Mean % growth (n = 2) for 1.0 µM probe concentration” value ([17]; ± SEM 1 % growth) was 106%, the “Mean % growth (n = 2) for 0.1 µM probe concentration” value ([17]; ± SEM 4 % growth) was 94% and the “Mean % growth (n = 2) for 0.01 µM probe concentration” value ([17]; ± SEM 5 % growth) was 98%. The “Mean % growth (n = 2) for 100.0 µM probe concentration” value ([17]; ± SEM 5 % growth) was -46%, the “Mean % growth (n = 2) for 10.0 µM probe concentration” value ([17]; ± SEM 9 % growth) was 53% and the IC50 ([18]; Homo sapiens, A-431) was 5.5 µM. The TGI ([18]; Homo sapiens, A-431) was 31 µM, the CC50 ([18]; Homo sapiens, A-431, read-out: LC50 (the source's name)) was greater than 100 µM and the “Mean % growth (n = 2) for 1.0 µM probe concentration” value ([18]; ± SEM 3 % growth) was 77%. For the same compound, the “Mean % growth (n = 2) for 10.0 µM probe concentration” value ([18]; ± SEM 3 % growth) was 35%, the “Mean % growth (n = 2) for 100.0 µM probe concentration” value ([18]; ± SEM 5 % growth) was -36% and the “Mean % growth (n = 2) for 0.1 µM probe concentration” value ([18]; ± SEM 6 % growth) was 103%. The “Mean % growth (n = 2) for 0.01 µM probe concentration” value ([18]; ± SEM 9 % growth) was 92%, the IC50 [19] was less than 0.001 µM and the inhibition [20] was 102%. It also gave an inhibition [21] of 6% and a Ki [22] of 6.77 µM.
In the case of Cn1cc(Cl)c2c(Oc3c(F)cc(Nc4cc(Cl)nc(N)n4)cc3F)ccnc21 [BAY-4900], the residual activity [23] is reported as 98%, the inhibition [24] is reported as -1.36% and the residual activity [25] is reported as 95%. For the same compound, the residual activity [26] was 100%, the residual activity [27] was 98% and the IC50 [28] was 17.7 µM (not active). For the same compound, the inhibition [29] was -3.76%.
